Assay in all cases: whole plant or invertebrate
Common to all, as to format: in vivo

Experiment [1] deals with Cotton Aphid (Aphis gossypii). Particulars: 120 h, foliar spraying on cucumber leaf, cotton aphid offspring, 5 days after the treatment, 25° C. The protocol: Biological Test Example 1: Test (Foliar Spraying) for Controlling Cotton Aphid (Aphis gossypii)
A cucumber leaf cut to a diameter of 3.5 cm was placed on cotton wool moistened with water. Two adult cotton aphids were released there for offspring for 24 hours and the adult insects were then removed. The diluent of the test compounds diluted with water to 200 ppm in an amount of 2 mL was sprayed onto the cucumber leaves with a spray tower. After air-drying, the sample with cotton wool was placed in a plastic cup, which was covered with a lid and kept in a chamber at a constant temperature of 25° C. for rearing.

Experiment [2] concerns Diamondback Moth (Plutella xylostella). The settings on record: foliar, 120 h, cabbage leaf dipping, third instar larvae, 5 days after the treatment, 25° C. The protocol:
Biological Test Example 2: Test (Foliage Dipping) for Controlling Diamondback Moth (Plutella xylostella)
A cabbage leaf cut to a diameter of 5.0 cm was dipped in the diluent of the test compounds diluted with water to 200 ppm in an amount of 20 mL and air-dried. After air-drying, the cabbage leaf was placed in a plastic cup, and 10 larvae of diamondback moths in the third instar larva were released there. The cup was covered with a lid and kept in a chamber at a constant temperature of 25° C. for rearing.

The test system of experiment [3] is Brown Planthopper (Nilaparvata lugens). The settings on record: rice seedling root dipping, third instar larvae released after 2 days, 5 days after the treatment, 25° C. The protocol:
Biological Test Example 4: Test (Root Dipping) for Controlling Brown Planthopper (Nilaparvata lugens)
Ten sampled rice seedlings held with urethane in a glass cylinder having an inner diameter of 4.5 cm and a length of 14 cm were set up in a plastic cup containing 40 mL of chemical solution diluted with water to 0.8 ppm. After 2 days, 10 larvae of brown planthoppers in the third instar larva were released in the glass cylinder. The glass cylinder was covered with a lid of medicine paper and kept in a chamber at a constant temperature of 25° C. for rearing.

For experiment [4], the system named is Southern Yellow thrips (Thrips palmi). The settings on record: 72 h, foliar spraying on cucumber leaf, first instar larvae, 3 days after the treatment, 25° C. The protocol:
Biological Test Example 5: Test (Foliar Spraying) for Controlling Southern Yellow thrips (Thrips palmi)
A cucumber leaf cut to a diameter of 1.5 cm was placed on cotton wool moistened with water. The diluent of the test compounds diluted with water to 200 ppm in an amount of 2 mL was sprayed onto the cucumber leaves with a spray tower. After air-drying, 5 larvae of southern yellow thrips in the first instar larva were released there and placed with cotton wool in a plastic cup, which was covered with a lid and kept in a chamber at a constant temperature of 25° C. for rearing.

Experiment [5] concerns Brown Planthopper (Nilaparvata lugens). The settings on record: foliar, 120 h, rice seedling foliage dipping, third instar larvae, 5 days after the treatment, 25° C. The protocol:
Biological Test Example 3: Test (Foliage Dipping) for Controlling Brown Planthopper (Nilaparvata lugens)
Ten sampled rice seedlings were dipped in the chemical solution of the test compounds diluted with water to 200 ppm in an amount of 20 mL and air-dried. After air-drying, the rice seedlings held with urethane in a glass cylinder having an inner diameter of 4.5 cm and a length of 14 cm were set up in a plastic cup containing 40 mL of water. Larvae of brown planthoppers in the third instar larva were released in the glass cylinder. The cylinder was covered with a lid of medicine paper and kept in a chamber at a constant temperature of 25° C. for rearing.

Mortality data for seven compounds are collected here from patent publication US20200017490A1, “Novel Mesoionic Insecticidal Compound” (Nippon Kayaku Kabushiki Kaisha, priority 2016, published 2020).

A word on the mortality: it is the share of the test organisms that died.

In the case of `O=c1c(-c2cccc(C(F)(F)F)c2)c([O-])[n+](CCC=NOc2ccc(Cl)nc2)c2ccccn12` [Compound K-2], the mortality at 200 ppm in experiment [1], in experiment [2] and in experiment [4] was no less than 80% throughout. For the same compound, in experiment [3], the mortality at 0.8 ppm is no less than 80%.
Regarding `CC(C)(C)[S+]([O-])N=CCC[n+]1c([O-])c(-c2cccc(C(F)(F)F)c2)c(=O)n2ccccc21` (stereo not shown) [Compound K-3], in experiment [5], the mortality at 200 ppm is no less than 80%.
`O=c1c(-c2ccccc2)c([O-])[n+](CCC=NOC2COCCO2)c2ccccn12` (stereo not shown) [Compound K-10] gave a mortality at 200 ppm in experiment [5] of no less than 80%.
As for `C=CCc1c([O-])[n+](CCC=NOC(C)OCC)c2ccccn2c1=O` (stereo not shown) [Compound K-9], the mortality at 200 ppm in experiment [5] was no less than 80%.
In turn, `CCOC(C)ON=CCC[n+]1c([O-])c(CC=C(C)C)c(=O)n2ccccc21` (stereo not shown) [Compound K-8] displayed a mortality at 200 ppm in experiment [5] of no less than 80%.
In experiment [5], `COc1cccc(-c2c(O)[n+](CCC=N[N+](C)(C)C)c3ccccn3c2=O)c1` [Compound K-1] returned a mortality at 200 ppm of no less than 80%.
In experiment [5], `CC(C)=CCON=CCC[n+]1c([O-])c(CC=C(C)C)c(=O)n2ccccc21` [Compound K-7] displayed a mortality at 200 ppm of no less than 80%.
